Measurements from patent US9730928B2, “Trizol-1-OL analogs anti-retroviral latency drugs” (priority 2013, dated 2017).
“Also recorded” adds a separate entry of the source.

Tests used:
latent HIV-1 [1] = assay: Blocking of viral reactivation by chemical inhibitors of known signaling pathways; format: cell-based; conditions: reactivation stimulus HOAt
Description: The ability of chemical inhibitors of known signaling pathways to block viral reactivation mediated by HOAt was examined (FIG. 4A). […] Activation of JAK kinases lead to the activation of the transcription factors STATs. Specific inhibitors of STAT3 and STAT5 were thus also studied.

latent HIV-1 [2] = assay: Reactivation of latent HIV-1 in latently infected cultured TCM (GFP / p24Gag by flow cytometry); format: cell-based; conditions: for ability to induce viral reactivation compared to the original hit HOBt: panel of 7 derivatives of HOBt (FIG. 2D); for activation of latent HIV-1 (viral reactivation): 72 hours after stimulation, GFP or p24Gag by flow cytometry
Description: A novel primary cell model for the study of HIV-1 latency was adapted so as to be suitable for high-throughput screening (HTS) of new compounds that may reactivate HIV-1 from its latency state (Bosque and Planelles, 2009; Bosque and Planelles, 2010; and patent application: Methods and compositions relating to viral latency, Planelles V, Basque A, U.S. Patent Application 2010/0291067 A1, November 2010).
To facilitate HTS, the nef gene was replaced with that encoding the green fluorescent protein (GFP). It was confirmed that deletion of nef has no effect in latency/reactivation (Bosque and Planelles, 2009) and that using GFP provides a faster, more economical, and equally sensitive, as compared to intracellular p24 detection, readout.
The reactivation experiments were modified to be performed in 96-well plates, utilizing 100,000 cells per well. After reactivation, flow cytometric analysis was performed with Becton Dickinson FACSCanto II with a High Throughput Sampler (HTS) for microtiter plates that is available through the Flow Cytometry Core Facility at the University of Utah. It takes about 30 minutes to analyze a plate, when acquiring 10,000 cells per well. Analysis for each well includes (a) green fluorescence as a direct indicator of viral reactivation; and (b) forward and side scatter as general measures of cell morphology, which is a gross indication of viability.
Latently infected cells were generated using healthy, uninfected DONOR 78 cells that were infected with DHIV virus. Reactivation was monitored by analysis of GFP by Flow Cytometry 72 hours after stimulation. Beads coated with anti-CD3/anti CD28 (CD3/CD28) were used as a positive reactivation stimulus. Reactivation was done in a 96-well plate round bottom. […] This compound is an intermediate en route to synthesis of a cyclic peptide isolated from a tunicate.
HPLC was used to generate 20 fractions based on elution time using a gradient from 10-100% acetonitrile in 0.1% formic acid using a Phenomenex Kinetic C18 50×2.10 mm column ([…], 100 A). The ability of these fractions to activate HIV-1 was tested and compared in parallel with the original hit. […] Further fractionation of C7 was performed and each fraction tested at the concentration indicated in the graph (FIG. 1D). […] Finally, HOBt was tested at different concentrations and analyzed on either Day 3, Day 5, or Day 7.

pSTAT5 [3] = assay: pSTAT5 levels 48 h after IL-2 plus derivatives, flow cytometer; format: cell-based; conditions: with IL-2, 48 h
Procedure: Cells were treated with IL-2 and several derivatives of HOAt. Levels of pSTAT5 were measured 48 h later by flow cytometer.

latent HIV-1 [4] = assay: Reactivation of latent HIV-1 in absence or presence of γc-cytokines; format: cell-based; conditions: for viral reactivation in the presence of IL-2, IL-4, and IL-15: as worded; for viral reactivation in the presence of IL-2, IL-7 and IL-5: as worded in FIG. 3 legend b37; for viral reactivation in combination with IL-4: combined with IL-4; for viral reactivation in combination with IL-9 and IL-21: combined with IL-9 or IL-21; for viral reactivation in the absence of γc-cytokines: no cytokines, p24Gag 72 hours; for viral reactivation by cytokine alone: cytokine by itself, compared with absence of cytokines
Procedure: Latently infected cells were generated using healthy, uninfected DONOR 78 cells that were infected with DHIV virus. Reactivation was monitored by analysis of p24Gag by Flow Cytometry 72 hours after stimulation.

STAT5 [5] = assay: STAT5 phosphorylation by flow cytometry in cultured TCM; format: cell-based, human
Procedure: The levels of STAT5 phosphorylation were analyzed by flow cytometry after incubating cultured TCM with HOAt, IL-2, or a combination of both, during a 24 h period (FIG. 4B).

STAT5 [6] = assay: Nuclear localization of STAT5; format: cell-based, human; conditions: IL-2 alone or in the presence of HOAt
Description: Nuclear translocation of STAT5 is required for its transcriptional activity. […] Histone H3 and alpha Tubulin were used as controls for purity of the fractionation.

SOCS3 = assay: Expression levels of SOCS3, a target gene for STAT5; format: cell-based, human; conditions: IL-2 and HOAt, 24 h post-treatment
Procedure: STAT5 is a transcriptional activator of multiple genes. To address whether HOAt will increase the transcription of any STAT5 target genes, the expression levels of SOCS3, a target gene for STAT5, were analyzed.

[7] = tested on: memory T cells / cultured TCM; assay: T cell activation (activation markers CD25 and CD69); format: cell-based, human; conditions: for increase of CD25 levels (mean intensity of fluorescence): maximum concentration used (compound), TCR engagement (αCD3/αCD28)
Description: (§1) Memory cells were generated from 3 different donors and treated with either HOBt or anti-CD3/CD28 to analyze the effect of HOBt on T cell activation (FIG. 6A). Analysis of T cell activation was done by analyzing the upregulation of the activation markers CD25 and CD69 three days post activation. […] Analysis of T cell differentiation was done by analyzing the levels of CCR7 and CD27 three days post activation (FIG. 6B).
(§2) In order to determine whether HOAt is inducing T cell proliferation, culter TCM were incubated with HOAt in a dose dependent manner. […] It has been shown previously that both cultured TCM and ex vivo TCM express low levels of CD25 (Bosque et al. 2011). This level is increased by 37 times after TCR engagement with αCD3/αCD28, measured as mean intensity of fluorescence (values between parenthesis, FIG. 6D).
CD69 upregulation is concomitant with T cell activation.

cultured TCM = assay: T cell proliferation of cultured TCM; format: cell-based, human; conditions: dose dependent incubation
Procedure: as §2

latent HIV-1 [8] = assay: Viral reactivation mediated by other stimuli (PMA, ionomycin, SAHA); format: cell-based; conditions: HOAt added to each of three stimuli
latent HIV-1 [9] = assay: Reactivation of latent HIV-1 in cells isolated from aviremic HIV-1 patients; format: cell-based; conditions: cells of two patients suppressed with antiretroviral; versus DMSO control
Description: Briefly, cells for two patients suppressed with antiretroviral were isolated and treated with either DMSO (Control), HOAt or the mitogen PHA.

pSTAT5 [10] = assay: pSTAT5 immunoprecipitation and western blot; format: cell-based; conditions: 30 min pretreatment, then IL-2 for 30 min
Procedure: STAT5 was immunoprecipitated with antibodies specific for the phosphorylated protein and western blot was performed against pSTAT5.

memory T cells = assay: T cell differentiation (CCR7 and CD27 levels); format: cell-based, human; conditions: three days post activation
Description: as §1

Cc1ccc2nc(NCCN)c3ncc(C)n3c2c1 [BMS345541]
effect on viral reactivation induced by HOAt (latent HIV-1 [1]): did not have a significant effect

O=c1c2ccccc2nnn1O [HO-DhBt, 3-hydroxybenzo[d][1,2,3]triazin-4-(3H)-one]
ability to induce viral reactivation compared to the original hit HOBt (latent HIV-1 [2]): able to induce viral reactivation in a dose dependent manner and with increased efficiency; also recorded: increased ability to induce viral reactivation in a dose dependent manner
maintenance of pSTAT5 levels (pSTAT5 [3]): maintain pSTAT5 levels in a dose dependent manner

On1nnc2cccnc21 [HOAt, 1-hydroxy-7-azabenzotriazole]
activation of latent HIV-1 (viral reactivation) (latent HIV-1 [2]): able to reactivate HIV-1 latency; also recorded: activates HIV-1 latent cells; also recorded: activate latent HIV-1; also recorded: reactivate HIV-1 latency in a dose dependent manner
ability to induce viral reactivation compared to the original hit HOBt (latent HIV-1 [2]): more potent analog than the original hit; also recorded: increased activity compared to HOBt
viral reactivation in the presence of IL-2, IL-4, and IL-15 (latent HIV-1 [4]): dramatically increase viral reactivation
viral reactivation in the presence of IL-2, IL-7 and IL-5 (latent HIV-1 [4]): increase viral reactivation
viral reactivation in combination with IL-4 (latent HIV-1 [4]): induced significant viral reactivation; also recorded: did induce significant viral reactivation
viral reactivation in combination with IL-9 and IL-21 (latent HIV-1 [4]): did not have an effect in viral reactivation
viral reactivation in the absence of γc-cytokines (latent HIV-1 [4]): significantly reactivate HIV-1 latency
STAT5 phosphorylation, agent alone over untreated cells (STAT5 [5]; HOAt alone): able to induce an increase in STAT5 phosphorylation over untreated cells
STAT5 phosphorylation, combination with IL-2 (STAT5 [5]; IL-2 and HOAt): drastic increase in STAT5 phosphorylation
STAT5 phosphorylation after 24 hrs, combination with IL-2 (STAT5 [5]; IL-2 and HOAt, 24 hrs): do not significantly decrease
pSTAT5 and STAT5 levels in the nucleus (STAT5 [6]): increased in the nucleus; also recorded: increases the nuclear localization of STAT5
levels (transcription) of SOCS3 (SOCS3): increase the levels of SOCS3; also recorded: increases the transcription of SOC3S
levels of T cell activation (CD69) compared with αCD3/αCD28 ([7]; CD69 upregulation): slightly increases the levels of T cell activation
increase of CD25 levels (mean intensity of fluorescence) [7]: 1.4 times
T cell proliferation (cultured TCM): only induces some degree of cell proliferation at the higher concentration tested
viral reactivation mediated by PMA, ionomycin and SAHA (latent HIV-1 [8]): able to increase viral reactivation mediated by these three stimuli; also recorded: increases viral reactivation
regrowth of latent viruses in patient cells in vitro (latent HIV-1 [9]): can induce regrowth of latent viruses in both patients
levels of pSTAT5 in the inputs (pSTAT5 [10]): increases the levels of pSTAT5
maintenance of pSTAT5 levels (pSTAT5 [3]): maintain pSTAT5 levels in a dose dependent manner

On1nnc2ccccc21 [HOBt, 1-hydroxybenzotriazole]
activation of latent HIV-1 (viral reactivation) (latent HIV-1 [2]): activate latent HIV-1 in a dose-dependent manner; also recorded: able to reactivate HIV-1 latency; also recorded: reactivate HIV-1 latency in a dose dependent manner; also recorded: activates HIV-1 latent cells
kinetics of HIV-1 latency reactivation compared with anti-CD3/CD28 (latent HIV-1 [2]; analyzed on Day 3, Day 5, or Day 7): slower kinetics
viral reactivation in the presence of IL-2, IL-4, and IL-15 (latent HIV-1 [4]): dramatically increase viral reactivation
viral reactivation in the presence of IL-2, IL-7 and IL-5 (latent HIV-1 [4]): increase viral reactivation
viral reactivation in combination with IL-4 (latent HIV-1 [4]): induced significant viral reactivation; also recorded: did induce significant viral reactivation
viral reactivation in combination with IL-9 and IL-21 (latent HIV-1 [4]): did not have an effect in viral reactivation
viral reactivation in the absence of γc-cytokines (latent HIV-1 [4]): significantly reactivate HIV-1 latency
increase of CD25 levels (mean intensity of fluorescence) [7]: 1.4 times
general T cell activation (upregulation of CD25 and CD69) ([7]; three days post activation, 3 donors): does not induce general T cell activation
T cell differentiation (loss of CCR7 and CD27 expression) (memory T cells): does not induce T cell differentiation
T cell proliferation (cultured TCM): only induces some degree of T cell proliferation at the higher concentration tested
maintenance of pSTAT5 levels (pSTAT5 [3]): maintain pSTAT5 levels in a dose dependent manner

O=C(N/N=C/c1coc2ccccc2c1=O)c1cccnc1 [STAT5 inhibitor]
effect on viral reactivation induced by HOAt (latent HIV-1 [1]): completely abrogates viral reactivation; also recorded: completely prevent activation of latent HIV-1 by HOAt

IL-9: γc-cytokine
viral reactivation by cytokine alone (latent HIV-1 [4]): did not have an effect in viral reactivation; also recorded: no effect

IL-21: γc-cytokine
viral reactivation by cytokine alone (latent HIV-1 [4]): did not have an effect in viral reactivation; also recorded: no effect

B1: IL-4: γc-cytokine (protein, UniProt P05112 25-153, looked up)
Interleukin-4: HKCDITLQEIIKTLNSLTEQKTLCTELTVTDIFAASKNTTEKETFCRAATVLRQFYSHHEKDTRCLGATAQQFHRHKQLIRFLKRLDRNLWGLAGLNSCPVKEANQSTLENFLERLKTIMREKYSKCSS
viral reactivation by cytokine alone (latent HIV-1 [4]): not able to induce significant viral reactivation by itself; also recorded: did not induce viral reactivation by itself

B2: IL-7: γc-cytokine (protein, UniProt P13232 26-177, looked up)
Interleukin-7: DCDIEGKDGKQYESVLMVSIDQLLDSMKEIGSNCLNNEFNFFKRHICDANKEGMFLFRAARKLRQFLKMNSTGDFDLHLLKVSEGTTILLNCTGQVKGRKPAALGEAQPTKSLEENKSLKEQKKLNDLCFLKRLLQEIKTCWNKILMGTKEH
viral reactivation by cytokine alone (latent HIV-1 [4]): trend towards increasing viral reactivation
